# Assay results reported in paper PMC11754895 (Nature Communications, 2025).
# Molecular target: T1, OleTKM (Kocuria marina, UniProt A0A0B0D9P4)
# T1 sequence (A0A0B0D9P4 1-428): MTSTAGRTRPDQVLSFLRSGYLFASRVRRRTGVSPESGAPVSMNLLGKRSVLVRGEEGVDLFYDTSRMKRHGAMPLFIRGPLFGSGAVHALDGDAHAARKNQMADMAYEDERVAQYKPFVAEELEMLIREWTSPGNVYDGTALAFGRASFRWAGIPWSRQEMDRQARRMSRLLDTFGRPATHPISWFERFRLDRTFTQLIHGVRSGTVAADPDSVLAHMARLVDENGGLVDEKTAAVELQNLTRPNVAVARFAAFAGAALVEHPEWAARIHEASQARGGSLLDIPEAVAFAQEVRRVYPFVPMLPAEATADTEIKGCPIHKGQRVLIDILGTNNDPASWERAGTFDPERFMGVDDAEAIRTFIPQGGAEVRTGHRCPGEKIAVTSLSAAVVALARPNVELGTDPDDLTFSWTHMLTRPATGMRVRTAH
# Test: inhibition of myristic acid turnover
# Type: biochemical
# Conditions: even mixture of C14:0 and C18:1; competitive
structure (smiles),measurement,value
CCCCCCCC/C=C\CCCCCCCC(=O)O [oleic acid],inhibition of myristic acid turnover,presence of oleic acid impaired the activity of OleTKM against myristic acid (Fig. 1d)
